For one test, the system named is cytokine secretion. The test is described as follows: Suppression of cytokine secretion in vitro by individual tricyclic compounds.
For test [1], the system named is TNFα secretion from LPS stimulated white blood cells from human buffy coat. Description: TNFα secretion assay, LPS stimulation. As to conditions: for percent inhibition of TNFα secretion: LPS.
Experimental: (§1) Various concentrations of each test compound were added at the time of stimulation. […] After the plate was washed with 0.1% Tween 20/PBS, an HRP-luminescent substrate was added to each well and light intensity measured using a LJL Analyst plate luminometer.
Test [2] relates to TNFα secretion from PMA/ionomycin stimulated white blood cells from human buffy coat. Description: TNFα secretion assay, PMA/ionomycin stimulation. As to conditions: for inhibition at 0.01 µM: read-out: TNFα PI percent inhibition, 0.01 μM.
Experimental: as §1
The mark [3] stands for this setting: Clomipramine μM: 57.00, 28.50, 14.25, 7.13, 3.56, 1.78, 0.89, 0.45, 0.22, 0.11, 0.06, 0.03.
The mark [4] stands for this setting: Amoxapine μM: 32.00, 16.00, 8.00, 4.00, 2.00, 1.00, 0.50, 0.25, 0.13, 0.06, 0.03, 0.02.
Where [5] appears, read: read-out: IL-1β LPS percent inhibition.
Setting [6] is: read-out: IL-2 PI percent inhibition.
[7] abbreviates: read-out: TNFα PI percent inhibition, 0.03 μM.
The mark [8] stands for this setting: read-out: TNFα PI percent inhibition, […].
Setting [9] is: Homo sapiens, read-out: TNFα LPS percent inhibition, 0.03 μM.
The mark [10] stands for this setting: Homo sapiens, read-out: TNFα LPS percent inhibition, […].
Where [11] appears, read: read-out: TNFα PI percent inhibition.
[12] abbreviates: Homo sapiens, read-out: TNFα LPS percent inhibition.
Setting [13] is: Nortriptyline μM by row r6-r17: 67.00, 33.50, 16.75, 8.38, 4.19, 2.09, 1.05, 0.52, 0.26, 0.13, 0.07, 0.03.
Setting [14] is: Protriptyline μM by row r6-r17: 67.00, 33.50, 16.75, 8.38, 4.19, 2.09, 1.05, 0.52, 0.26, 0.13, 0.07, 0.03.

Values joined by “and” are separate entries in the source; they are usually repeats but may differ in a detail not shown here. Equal values may be shown once. Read-outs that look alike come from different tables or passages of the source.

Experimental for cytokine secretion: Individual tricyclic compounds were tested for their ability to suppress cytokine secretion in vitro.

Consider `CN(C)CCCN1c2ccccc2CCc2ccc(Cl)cc21` [Clomipramine, clomipramine], for which, in the test with cytokine secretion (setting [3]), the “IL-1β LPS, percent inhibition relative to untreated controls” value was 3% and 0%; the “IL-2 PI, percent inhibition relative to untreated controls” value was 5% and 0%; the “TNFα LPS, percent inhibition relative to untreated controls” value is reported as 0%; the “TNFα PI, percent inhibition relative to untreated controls” value was 0%. Further, in test [1] (Prednisolone 1 μM, Clomipramine μM r5-r13: 0,0.45,0.89,1.8,3.6,7.1,14,28,57), the “percent inhibition of TNFα secretion” value is on record as 69.3%.
In the case of `Clc1ccc2c(c1)C(N1CCNCC1)=Nc1ccccc1O2` [Amoxapine, amoxapine], in the test with cytokine secretion (setting [4]), the “IL-1β LPS, percent inhibition relative to untreated controls” value is 5% and 0%; the “IL-2 PI, percent inhibition relative to untreated controls” value is on record as 0%; the “TNFα LPS, percent inhibition relative to untreated controls” value was 0%; the “TNFα PI, percent inhibition relative to untreated controls” value was 4% and 0%. Also, the “percent inhibition of TNFα secretion” value in test [1] (Prednisolone 0.5 μM, Amoxapine μM r5-r13: 0,0.25,0.5,1,2,4,8,16,32) is 68.1%.
One may read the inhibition as the relative decrease from the control value, in per cent. For `CNCC[C@@H](Oc1ccccc1C)c1ccccc1` [Tomoxetine, tomoxetine], the inhibition at 0.03 µM (with cytokine secretion (setting [5]); in the test with cytokine secretion (setting [6]); in test [2] (setting [7]); in test [1] (setting [9])) was 0% in each case. The inhibition at 0.07 µM in the test on cytokine secretion (setting [5]) was found to be 0%; with cytokine secretion (setting [6]), 1%; in test [2] (read-out: TNFα PI percent inhibition, 0.07 μM), 4%; in test [1] (Homo sapiens, read-out: TNFα LPS percent inhibition, 0.07 μM), 1%. In addition, the inhibition at 69 µM in the test with cytokine secretion (setting [5]) was determined as 0%; with cytokine secretion (setting [6]) it was 79%; in test [2] (setting [8]), 72%; in test [1] (setting [10]), 0%.
As for `Clc1ccc2c(c1)N=C(N1CCNCC1)c1ccccc1N2` [Norclozapine, norclozapine], in test [1] (Prednisolone 0 μM, Norclozapine μM r5-r13: 0,0.21,0.41,0.83,1.7,3.3,6.6,13,27), the “percent inhibition of TNFα secretion” value is −17%.
`CN(C)CCC=C1c2ccccc2COc2ccccc21` [Doxepin, doxepin]: the inhibition at 0.03 µM (with cytokine secretion (setting [5]); in the test with cytokine secretion (setting [6]); in test [2] (setting [7]); in test [1] (setting [9])) was 0% each time. Also, the inhibition at 0.06 µM in the test on cytokine secretion (setting [5]) amounted to 1%; with cytokine secretion (setting [6]) it was 0%; in test [2] (read-out: TNFα PI percent inhibition, 0.06 μM) it was 0%; in test [1] (Homo sapiens, read-out: TNFα LPS percent inhibition, 0.06 μM) it was 5%. In addition, the inhibition at 63 µM stood at 26% in the test with cytokine secretion (setting [5]), 61% in the test with cytokine secretion (setting [6]), 78% in test [2] (setting [8]) and 13% in test [1] (setting [10]).
With `Cc1cc2c(s1)Nc1ccccc1N=C2N1CCN(C)CC1` [Olanzapine], in the test with cytokine secretion (setting [5]), the inhibition at 0.03 µM was found to be 0%, the inhibition at 0.06 µM was determined as 0%, the inhibition at 0.5 µM worked out at 2% and the inhibition at 1 µM was 5%. Further, in the test with cytokine secretion (setting [5]), the inhibition at 2 µM was found to be 3%, the inhibition at 4 µM was determined as 3%, the inhibition at 8 µM turned out to be 7% and the inhibition at 16 µM came to 21%. For the same molecule, in the test on cytokine secretion (setting [5]), the inhibition at 32 µM was found to be 41% and the inhibition at 64 µM worked out at 40%. Also, in the test with cytokine secretion (setting [6]), the inhibition at 0.03 µM was determined as 0%, the inhibition at 0.06 µM worked out at 0%, the inhibition at 0.5 µM was determined as 0% and the inhibition at 1 µM came out at 0%. Besides, in the test with cytokine secretion (setting [6]), the inhibition at 2 µM was 0%, the inhibition at 4 µM was 0%, the inhibition at 8 µM worked out at 0% and the inhibition at 16 µM stood at 0%. In the test with cytokine secretion (setting [6]), the inhibition at 32 µM amounted to 0% and the inhibition at 64 µM was determined as 0%. In test [2] (setting [11]), the inhibition at 0.03 µM was 0%, the inhibition at 0.06 µM came to 0%, the inhibition at 0.5 µM was 0% and the inhibition at 1 µM is 0%. Also, in test [2] (setting [11]), the inhibition at 2 µM came to 0%, the inhibition at 4 µM turned out to be 0%, the inhibition at 8 µM is 0% and the inhibition at 16 µM was 13%. Besides, in test [2] (setting [11]), the inhibition at 32 µM was found to be 27% and the inhibition at 64 µM was 54%. In test [1] (setting [12]), the inhibition at 0.03 µM amounted to 0%, the inhibition at 0.06 µM turned out to be 0%, the inhibition at 0.5 µM was 0% and the inhibition at 1 µM was 0%. For the same molecule, in test [1] (setting [12]), the inhibition at 2 µM came out at 0%, the inhibition at 4 µM worked out at 0%, the inhibition at 8 µM was 0% and the inhibition at 16 µM was found to be 0%. Also, in test [1] (setting [12]), the inhibition at 32 µM was determined as 0% and the inhibition at 64 µM stood at 10%.
With `OCCOCCN1CCN(C2=Nc3ccccc3Sc3ccccc32)CC1` [Quetiapine fumurate], the inhibition at 0.01 µM with cytokine secretion (setting [6]) is 0%; in test [2], 7%. In addition, the inhibition at 0.02 µM worked out at 0% in the test on cytokine secretion (setting [6]) and 0% in test [2] (read-out: TNFα PI percent inhibition, 0.02 μM). Further, the inhibition at 0.05 µM is 0% in the test on cytokine secretion (setting [6]) and 0% in test [2] (read-out: TNFα PI percent inhibition, 0.05 μM). Also, the values for the inhibition at 11 µM (in the test on cytokine secretion (setting [6]); in test [2] (setting [8])) were 0% and 13%, respectively.
As for `CNCCC=C1c2ccccc2CCc2ccccc21` [Nortriptyline, nortriptyline], in the test on cytokine secretion (setting [13]), the “IL-1β LPS, percent inhibition relative to untreated controls” value is 3% and 0%; the “IL-2 PI, percent inhibition relative to untreated controls” value was determined as 0%; the “TNFα LPS, percent inhibition relative to untreated controls” value is 1% and 0%; the “TNFα PI, percent inhibition relative to untreated controls” value was 2%.
`CNCCCC1c2ccccc2C=Cc2ccccc21` [Protriptyline, protriptyline]: in the test with cytokine secretion (setting [14]), the “IL-1β LPS, percent inhibition relative to untreated controls” value is recorded as 0%; the “IL-2 PI, percent inhibition relative to untreated controls” value came out at 0%; the “TNFα LPS, percent inhibition relative to untreated controls” value is 2% and 0%; the “TNFα PI, percent inhibition relative to untreated controls” value is on record as 0%.
On to `CN1CCN(C2=Nc3cc(F)ccc3Cc3ccccc32)CC1` [Fluperlapine, fluperlapine], for which the inhibition at 0.01 µM with cytokine secretion (setting [6]) was 6%; in test [2], 0%. For the same molecule, the inhibition at 0.04 µM in the test on cytokine secretion (setting [6]) came to 8%; in test [2] (read-out: TNFα PI percent inhibition, 0.04 μM), 0%. Moreover, the inhibition at 0.4 µM came out at 7% with cytokine secretion (setting [6]) and 0% in test [2] (read-out: TNFα PI percent inhibition, 0.40 μM). The results for the inhibition at 32 µM (in the test with cytokine secretion (setting [6]); in test [2] (setting [8])) were 1% and 25%, respectively.
On to `CCCC1O[C@@H]2C[C@H]3[C@@H]4CCC5=CC(=O)C=C[C@]5(C)[C@H]4[C@@H](O)C[C@]3(C)[C@]2(C(=O)CO)O1` (stereo partly shown) [Budesonide, budesonide], for which the inhibition at […] in test [2] (read-out: inhibition of TNFα secretion, Budesonide 35 nM, Imipramine nM: 0, 99, 394, 1578, 6311, 25000) is 42.1%; in test [2] (read-out: inhibition of TNFα secretion, Budesonide 35 nM, Nortriptyline nM: 0, 52, 208, 834, 3336, 13000), 36%; in test [2] (read-out: inhibition of TNFα secretion, Budesonide 35 nM, Protriptyline nM: 0, 52, 208, 834, 3336, 13000) it was 44.5%; in test [2] (read-out: percent inhibition of TNFα secretion, Budesonide 35 nM, Amitriptyline nM: 0, 50, 199, 796, 3186, 13000) it was 42%; in test [2] (read-out: percent inhibition of TNFα secretion, Budesonide 35 nM, Amoxapine nM: 0, 12, 50, 199, 797, 3187), 36.7%; in test [2] (read-out: percent inhibition of TNFα secretion, Budesonide 35 nM, Clomipramine nM: 0, 45, 178, 712, 2848, 11000), 45.3%. The inhibition at […] in test [2] (read-out: percent inhibition of TNFα secretion, Budesonide 35 nM, Desipramine nM: 0, 50, 200, 799, 3197, 13000) was determined as 48.1%.

(Values after patent US20090075951A1, “Methods and Reagents for the Treatment of Inflammatory Disorders” (CombinatoRx, Inc., priority 2003, published 2009).)
